Experimental data published in patent publication US20240124454A1, “TRICYCLIC COMPOUND AND USE THEREOF” (NANJING ZAIMING PHARMACEUTICAL CO., LTD., priority 2020, published 2024).
Like-named read-outs stand apart in the source and are kept apart here.

What was measured:
[1] = molecular target: MAT2A (Homo sapiens (Human), UniProt P31153); test: MAT2A biochemical test (inorganic phosphate colorimetric, PiColorLock); conditions: read-out: MAT2A inhibitory Activity IC50
Text: Test Example 1. Biochemical Test
The brief introduction of the test principle: L-methionine and ATP can be converted into SAM, inorganic phosphate, and inorganic diphosphate under the catalysis of MAT2A enzymes. The content of inorganic phosphate in the sample can be quantitatively determined by adding a developer such as ammonium molybdate or the like to the enzymatic reaction mixture, thereby reflecting the enzymatic activity of MAT2A.
(§1) Reference: The experiment referred to the method disclosed in patent WO2018045071.
Material: MAT2A screening kits were purchased from BPS bioscience (U.S.); 384-well plates were purchased from Corning Company (U.S.). • 1. MAT2A protein (Pharmaron Beijing Co., Ltd.); • 2. L-methionine (Sigma #M9625-5G) • 3. ATP (Sigma #A7699-1G) • 4. KCl (Sigma #60142-500ML-F) • 5. Tris (Sigma #T2663-1L) • 6. MgCl2 (Sigma #M1028) • 7. EDTA (Invitrogen #AM9260G) • 8. BSA (Sangon Biotech #A500023-0100) • 9. PiColorLock (abcam #ab270004)
Detection method: In the experimental group, the test compound was dissolved in DMSO, diluted to a final concentration of 10 μM using Echo, and diluted 3-fold. 80 nL of the dilution was transferred to a 384-well plate.
The experimental buffer (50 mM Tris, 50 mM KCl, 15 mM MgCl2, 100 μM EDTA, 0.005% BSA) was prepared. The MAT2A protein was diluted with the experimental buffer (at final concentration of […]). 40 μL of 2×MAT2A solution was added to the 384-well plate. The plate was centrifuged at 1000 rpm for 1 min and incubated at room temperature for 120 min.
L-methionine and ATP (the final concentration of L-methionine was […] and the final concentration of ATP was 400 μM) were diluted with the experimental buffer. 40 μL of 2×L-methionine and ATP solution was added to initiate the reaction. The plate was centrifuged at 1000 rpm for 1 min and incubated at room temperature for 90 min.
The PiColorLock™ reaction catalyst was mixed with the PiColorLock™ buffer at a ratio of 1:100 according to the instructions. 20 μL was added to each well, and the plate was shaken for 30 s. 8 μL stabilizing reagent was added, and the plate was shaken for 30 s. The signal values were measured after 30 min of incubation at room temperature.
(§2) A negative control group and a positive control group were respectively used as Bottom and Top. The negative control group was not added with MAT2A protein, and other operations were consistent with those of the experimental group. The positive control group was not added with the test compound, only added with DMSO in the same volume, and other operations were consistent with those of the experimental group.
(§3) The % Compound inhibition was calculated and fitted to give the IC50 of the compound.
(§4) % Compound inhibition=1-100%×(Signal−Bottom)/(Top−Bottom).
(§5) Signal referred to the signal value of the experimental group, Bottom referred to the average signal value of the negative control group, and Top referred to the average signal value of the positive control group.
Under the condition of this experiment, the inhibitory effect of the test compound on MAT2A can be expressed as the IC50 of the inhibition on the phosphate production level during the enzymatic reaction.

[2] = system: HCT116 WT cells; test: Cell proliferation inhibition test (Cell-Titer Glo), HCT116 WT; format: cell-based, human; conditions: Homo sapiens, HCT-116, 144 h, 6 days, read-out: HCT116 WT Antiproliferative activity IC50
Procedure: (§6) Test Example 3. Cell Proliferation Inhibition Test of Human Colon Cancer HCT116 WT Cells and HCT116 MTAP-1-Cells
(§7) The brief introduction of the test principle: After the test MAT2A inhibitor was incubated with cancer cells for a period of time, the effect of the test compound on cell proliferation was measured using a cell proliferation count method based on the ATP content.
as §1
(§8) Material and cell: HCT116 WT cells and HCT116 MTAP^−/− cells were purchased from KYinno; fetal bovine serum, McCoy's 5a culture medium, and penicillin-streptomycin were purchased from Gibco Company (U.S.), 96-well plates were purchased from Corning Company (U.S.), and the Cell-Titer Glo reagent was purchased from Promega Company (U.S.).
(§9) Cell culture: HCT116 WT cells and HCT116 MTAP^−/− cells were cultured with a McCoy's 5a medium containing 10% fetal bovine serum+1% penicillin-streptomycin at 37° C. with 5% CO2.
(§10) Cells at logarithmic growth phase were available for the experiment.
(§11) Cell proliferation activity test: The Cell-Titer Glo reagent was used to test the compound for inhibitory activity on proliferation of both HCT116 WT and HCT116 MTAP^−/− cell strains. The cells were adjusted to a concentration of 400 cells per well, seeded on a 96-well plate, and incubated overnight at 37° C. with 5% CO2.
(§12) In the experimental group, the test compound was diluted sequentially with DMSO and a culture medium, and transferred to a cell plate at a final concentration of 10 μM, 3-fold dilution. The cells were continuously cultured at 37° C. with 5% CO2 for 6 days. The Cell-Titer Glo reagent was added and the cell activity was measured.
as §2, with “cells, only added with the culture medium in the same volume,” for “MAT2A protein,”
as §3, §4, §5
(§13) HCT116 MTAP^−/− cells are cells not expressing MTAP protein obtained by site-directed knockout of wild type HCT116 (HCT116 WT) cells by gene knockout. Synthetic lethality will occur due to MAT2A inhibition and the deletion of MTAP, thereby causing tumor cell death. The activity and selectivity of the MAT2A inhibitor can be evaluated by testing the antiproliferative activity of the MAT2A inhibitor on human colon cancer HCT116 MTAP^−/− cells and human colon cancer HCT116 WT.

[3] = system: HCT116 MTAP^−/− cells; test: Cell proliferation inhibition test (Cell-Titer Glo), HCT116 MTAP−/−; format: cell-based, human; conditions: Homo sapiens, HCT-116, 144 h, 6 days, read-out: HCT116 MTAP−/− Antiproliferative activity IC50
Procedure: as §6, §7, §1, §8, §9, §10, §11, §12
as §2, with “cells, only added with the culture medium in the same volume,” for “MAT2A protein,”
as §3, §4, §5, §13

Sequence of MAT2A (P31153 whole entry): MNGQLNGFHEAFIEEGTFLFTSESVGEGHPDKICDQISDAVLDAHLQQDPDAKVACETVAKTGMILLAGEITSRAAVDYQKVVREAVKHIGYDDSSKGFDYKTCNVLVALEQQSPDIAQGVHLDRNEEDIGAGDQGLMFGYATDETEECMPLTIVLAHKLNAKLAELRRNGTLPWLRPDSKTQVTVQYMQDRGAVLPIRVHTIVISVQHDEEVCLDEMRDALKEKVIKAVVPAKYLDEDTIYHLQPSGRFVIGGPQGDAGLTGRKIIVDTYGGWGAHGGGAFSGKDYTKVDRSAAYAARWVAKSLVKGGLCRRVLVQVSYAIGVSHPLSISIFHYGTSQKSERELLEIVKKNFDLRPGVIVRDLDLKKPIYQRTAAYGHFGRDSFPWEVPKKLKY

Compound | IC50 ([1]; class symbols) [nM] | IC50 ([1]; numeric values) [nM] | IC50 [2] [nM] | IC50 [3] [nM]
O=c1c2[nH]ncc2c2ccc(C(F)(F)F)nc2n1-c1ccccc1Cl [Compound 6, 5-(2-chlorophenyl)-7-(trifluoromethyl)-3,5-dihydro-4H-pyrazolo[3,4-c][1,8]naphthyridin-4-one] | < 100 | 50.1 | 1110 | 288
Cc1ncccc1-n1c(=O)c2ncoc2c2ccc(Cl)cc21 (single isomer, unassigned) [Compound 83-P2, 7-chloro-5-(2-methylpyridin-3-yl)oxazolo[4,5-c]quinolin-4(5H)-one] | < 100 | 23.1 | 203 | 54.3
COc1nc2c(=O)n(-c3ccccc3Cl)c3nc(C(F)(F)F)ccc3c2[nH]1 [Compound 5, 5-(2-chlorophenyl)-2-methoxy-7-(trifluoromethyl)-1,5-dihydro-4H-imidazo[4,5-c][1,8]naphthyridin-4-one] | < 100 | 41.6 | > 10000 | 274
Cn1cnc2c(=O)n(-c3cccnc3C(F)(F)F)c3nc(C(F)(F)F)ccc3c21 (atropisomer, axis not shown) [Compound 41, 1-methyl-7-(trifluoromethyl)-5-(2-(trifluoromethyl)pyridin-3-yl)-1,5-dihydro-4H-imidazo[4,5-c][1,8]naphthyridin-4-one] | < 100 | 56.8 | 7860 | 164
O=c1c2ncoc2c2ccc(C(F)(F)F)nc2n1-c1cccc(F)c1Cl [Compound 35, 5-(2-chloro-3-fluorophenyl)-7-(trifluoromethyl)oxazolo[4,5-c][1,8]naphthyridin-4(5H)-one] | < 100 | 49 | 1210 | 238
Cn1cnc2c(=O)n(-c3cccc(Cl)c3)c3nc(C(F)(F)F)ccc3c21 [Compound 22, 5-(3-chlorophenyl)-1-methyl-7-(trifluoromethyl)-1,5-dihydro-1H-imidazo[4,5-c][1,8]naphthyridin-4-one] | 100 to 500 | – | – | –
Cn1cnc2c(=O)n(-c3c(F)cccc3Cl)c3nc(C(F)(F)F)ccc3c21 [Compound 26, 5-(2-chloro-6-fluorophenyl)-1-methyl-7-(trifluoromethyl)-1,5-dihydro-4H-imidazo[4,5-c][1,8]naphthyridin-4-one] | 100 to 500 | 135 | – | –
O=c1c2ncoc2c2ccc(C(F)(F)F)nc2n1-c1ccc(OC(F)F)cc1 [Compound 16, 5-(4-(difluoromethoxy)phenyl)-7-(trifluoromethyl)oxazolo[4,5-c][1,8]naphthyridin-4(5H)-one] | 100 to 500 | 122 | – | –

The remaining lines, values ahead:

IC50 ([1]; class symbols) [nM] | IC50 ([1]; numeric values) [nM] | IC50 [2] [nM] | IC50 [3] [nM] | Compound
< 100 | 47 | 2200 | 244 | Cn1cnc2c(=O)n(-c3cccnc3C3CC3)c3nc(C(F)(F)F)ccc3c21 (atropisomer, axis not shown) [Compound 42, 5-(2-cyclopropylpyridin-3-yl)-1-methyl-7-(trifluoromethyl)-1,5-dihydro-4H-imidazo[4,5-c][1,8]naphthyridin-4-one]
< 100 | 28.2 | 355 | 79 | Cc1c(F)cccc1-n1c(=O)c2ncn(C)c2c2ccc(C(F)(F)F)nc21 (single isomer, unassigned) [Compound 43-P2, 5-(3-fluoro-2-methylphenyl)-1-methyl-7-(trifluoromethyl)-1,5-dihydro-4H-imidazo[4,5-c][1,8]naphthyridin-4-one]
< 100 | 78.3 | 859 | 188 | Cn1cnc2c(=O)n(-c3cccc(F)c3Cl)c3nc(C(F)(F)F)ncc3c21 [Compound 65, 5-(2-chloro-3-fluorophenyl)-1-methyl-7-(trifluoromethyl)-1,5-dihydro-4H-imidazo[4′,5′:4,5]pyrido[2,3-d]pyrimidin-4-one]
< 100 | 19.8 | 214 | 33 | Cc1ncccc1-n1c(=O)c2ncn(C)c2c2ccc(Cl)cc21 (single isomer, unassigned) [Compound 46-P2, 7-chloro-1-methyl-5-(2-methylpyridin-3-yl)-1,5-dihydro-4H-imidazo[4,5-c]quinolin-4-one]
< 100 | 23.1 | 271 | 50.2 | Cc1ncccc1-n1c(=O)c2ncoc2c2ccc(C(F)(F)F)cc21 (single isomer, unassigned) [Compound 82-P2, 5-(2-methylpyridin-3-yl)-7-(trifluoromethyl)oxazolo[4,5-c]quinolin-4(5H)-one]
< 100 | 53.5 | > 10000 | 394 | COc1ncccc1-n1c(=O)c2ncn(C)c2c2ccc(C(F)(F)F)nc21 [Compound 68, 5-(2-methoxypyridin-3-yl)-1-methyl-7-(trifluoromethyl)-1,5-dihydro-4H-imidazo[4,5-c][1,8]naphthyridin-4-one]
< 100 | 48.5 | 473 | 87 | Cc1ncccc1-n1c(=O)c2ncn(C)c2c2ccc(Cl)cc21 (atropisomer, axis not shown) [Compound 46, 7-chloro-1-methyl-5-(2-methylpyridin-3-yl)-1,5-dihydro-4H-imidazo[4,5-c]quinolin-4-one]
< 100 | 25 | – | – | O=c1c2ncoc2c2ccc(C(F)(F)F)nc2n1-c1cccnc1C(F)(F)F (single isomer, unassigned) [Compound 86-P2, 7-trifluoromethyl-5-(2-trifluoromethylpyridin-3-yl)oxazolo[4,5-c][1,8]naphthyridin-4(5H)-one]
100 to 500 | 282 | – | – | Cn1cnc2c(=O)n(-c3ccc(OC(F)F)cn3)c3nc(C(F)(F)F)ccc3c21 [Compound 69, 5-(5-(difluoromethoxy)pyridin-2-yl)-1-methyl-7-(trifluoromethyl)-1,5-dihydro-4H-imidazo[4,5-c][1,8]naphthyridin-4-one]
